Measured values as given in ChEMBL document CHEMBL5608186, “Design, synthesis and structure-activity relationships of novel non-ketolides: 9-Oxime clarithromycin featured with seven-to thirteen-atom-length diamine linkers at 3-OH” (Eur J Med Chem, 2024).
In brackets after ≈: the same amount, converted by molar mass.

How the values were obtained:
Staphylococcus aureus [1] = test: Bactericidal activity against methicillin-resistant Staphylococcus aureus PU 32 harboring i-ermA gene incubated for 16 to 20 hrs by CLSI based broth microdilution method; format: functional; conditions: time 16-20 hrs
Staphylococcus aureus [2] = test: Bactericidal activity against methicillin-resistant Staphylococcus aureus PU 20 harboring c-ermA gene incubated for 16 to 20 hrs by CLSI based broth microdilution method; format: functional; conditions: time 16-20 hrs
Streptococcus pneumoniae [3] = test: Antibacterial activity against Streptococcus pneumoniae PU 09 harboring mef gene incubated for 16 to 20 hrs by CLSI based broth microdilution method; format: functional; conditions: time 16-20 hrs
Streptococcus pneumoniae [4] = test: Selectivity ratio of MBC for Streptococcus pneumoniae ATCC 49619 to MIC for Streptococcus pneumoniae ATCC 49619; format: functional
Streptococcus pyogenes [5] = test: Bactericidal activity against Streptococcus pyogenes 01-968 harboring i-ermB gene incubated for 16 to 20 hrs by CLSI based broth microdilution method; format: functional; conditions: time 16-20 hrs
Streptococcus pneumoniae [6] = test: Antibacterial activity against Streptococcus pneumoniae 07P390 harboring c-erm gene incubated for 16 to 20 hrs by CLSI based broth microdilution method; format: functional; conditions: time 16-20 hrs
Streptococcus pneumoniae [7] = test: Antibacterial activity against Streptococcus pneumoniae ATCC 49619 incubated for 16 to 20 hrs by CLSI based broth microdilution method; format: functional; conditions: time 16-20 hrs
Staphylococcus aureus [8] = test: Antibacterial activity against methicillin-resistant Staphylococcus aureus PU 32 harboring i-ermA gene incubated for 16 to 20 hrs by CLSI based broth microdilution method; format: functional; conditions: time 16-20 hrs
Haemophilus influenzae [9] = test: Selectivity ratio of MBC for Haemophilus influenzae ATCC 49247 to MIC for Haemophilus influenzae ATCC 49247; format: functional
Haemophilus influenzae [10] = test: Antibacterial activity against Haemophilus influenzae ATCC 49247 incubated for 16 to 20 hrs by CLSI based broth microdilution method; format: functional; conditions: time 16-20 hrs
Staphylococcus aureus [11] = test: Antibacterial activity against methicillin-resistant Staphylococcus aureus PU 20 harboring c-ermA gene incubated for 16 to 20 hrs by CLSI based broth microdilution method; format: functional; conditions: time 16-20 hrs
Streptococcus pneumoniae [12] = test: Selectivity ratio of MBC for Streptococcus pneumoniae PU 09 harboring mef gene to MIC for Streptococcus pneumoniae PU 09 harboring mef gene; format: functional
Streptococcus pyogenes [13] = test: Selectivity ratio of MBC for Streptococcus pyogenes 01-968 harboring i-ermB gene to MIC for Streptococcus pyogenes 01-968 harboring i-ermB gene; format: functional
Streptococcus pneumoniae [14] = test: Bactericidal activity against Streptococcus pneumoniae PU 09 harboring mef gene incubated for 16 to 20 hrs by CLSI based broth microdilution method; format: functional; conditions: time 16-20 hrs
Streptococcus pneumoniae [15] = test: Bactericidal activity against Streptococcus pneumoniae ATCC 49619 incubated for 16 to 20 hrs by CLSI based broth microdilution method; format: functional; conditions: time 16-20 hrs
Streptococcus pneumoniae [16] = test: Selectivity ratio of MBC for Streptococcus pneumoniae 07P390 harboring c-erm gene to MIC for Streptococcus pneumoniae 07P390 harboring c-erm gene; format: functional
Staphylococcus aureus [17] = test: Selectivity ratio of MBC for methicillin-resistant Staphylococcus aureus PU 20 harboring c-ermA gene to MIC for methicillin-resistant Staphylococcus aureus PU 20 harboring c-ermA gene; format: functional
Staphylococcus aureus [18] = test: Selectivity ratio of MBC for methicillin-resistant Staphylococcus aureus PU 32 harboring i-ermA gene to MIC for methicillin-resistant Staphylococcus aureus PU 32 harboring i-ermA gene; format: functional
Haemophilus influenzae [19] = test: Bactericidal activity against Haemophilus influenzae ATCC 49247 incubated for 16 to 20 hrs by CLSI based broth microdilution method; format: functional; conditions: time 16-20 hrs
Streptococcus pyogenes [20] = test: Antibacterial activity against Streptococcus pyogenes 01-968 harboring i-ermB gene incubated for 16 to 20 hrs by CLSI based broth microdilution method; format: functional; conditions: time 16-20 hrs
Streptococcus pneumoniae [21] = test: Bactericidal activity against Streptococcus pneumoniae 07P390 harboring c-erm gene incubated for 16 to 20 hrs by CLSI based broth microdilution method; format: functional; conditions: time 16-20 hrs
[22] = Metabolic stability in human liver microsomes assessed as unchanged drug at 1 uM incubated upto 60 mins in presence of NADPH by LC-MS/MS analysis; format: ADME, Microsome; conditions: read-out: Stability
[23] = Metabolic stability in human liver microsomes assessed as intrinsic clearance in liver at 1 uM incubated upto 60 mins in presence of NADPH by LC-MS/MS analysis; format: ADME, Microsome; conditions: read-out: CLH
[24] = Metabolic stability in rat liver microsomes assessed as unchanged drug at 1 uM incubated upto 60 mins in presence of NADPH by LC-MS/MS analysis; format: ADME, Microsome; conditions: read-out: Stability
[25] = Metabolic stability in human liver microsomes assessed as half life at 1 uM incubated upto 60 mins in presence of NADPH by LC-MS/MS analysis; format: ADME, Microsome

SMILES: CC[C@H]1OC(=O)[C@H](C)[C@@H](OC(=O)CCN2CCN(c3cc4c(cc3F)c(=O)c(C(=O)O)cn4C3CC3)CC2)[C@H](C)[C@@H](O[C@@H]2O[C@H](C)C[C@H](N(C)C)[C@H]2O)[C@](C)(OC)C[C@@H](C)/C(=N\OCCCc2cncc(C(=O)NC)c2)[C@H](C)[C@H]2OC(=O)O[C@@]21C
- MBC (Staphylococcus aureus [1]): > 256 µg/mL
- MBC (Staphylococcus aureus [2]): > 256 µg/mL
- MIC (Streptococcus pneumoniae [3]): 0.03 µg/mL (≈ 0.0252 µM)
- Selectivity ratio (Streptococcus pneumoniae [4]): 2
- MBC (Streptococcus pyogenes [5]): > 32 µg/mL
- MIC (Streptococcus pneumoniae [6]): 2 µg/mL (≈ 1.68 µM)
- MIC (Streptococcus pneumoniae [7]): 0.016 µg/mL (≈ 0.0134 µM)
- MIC (Staphylococcus aureus [8]): 64 µg/mL (≈ 53.7 µM)
- Selectivity ratio (Haemophilus influenzae [9]): 1
- MIC (Haemophilus influenzae [10]): 2 µg/mL (≈ 1.68 µM)
- MIC (Staphylococcus aureus [11]): 64 µg/mL (≈ 53.7 µM)
- Selectivity ratio (Streptococcus pneumoniae [12]): 4
- Selectivity ratio (Streptococcus pyogenes [13]): >8
- MBC (Streptococcus pneumoniae [14]): 0.12 µg/mL (≈ 0.101 µM)
- MBC (Streptococcus pneumoniae [15]): 0.03 µg/mL (≈ 0.0252 µM)
- Selectivity ratio (Streptococcus pneumoniae [16]): 8
- Selectivity ratio (Staphylococcus aureus [17]): >4
- Selectivity ratio (Staphylococcus aureus [18]): >4
- MBC (Haemophilus influenzae [19]): 2 µg/mL (≈ 1.68 µM)
- MIC (Streptococcus pyogenes [20]): 4 µg/mL (≈ 3.35 µM)
- MBC (Streptococcus pneumoniae [21]): 16 µg/mL (≈ 13.4 µM)

SMILES: CC[C@H]1OC(=O)[C@H](C)[C@@H](OC(=O)CCNCCCCCNc2cc3c(cc2F)c(=O)c(C(=O)O)cn3C2CC2)[C@H](C)[C@@H](O[C@@H]2O[C@H](C)C[C@H](N(C)C)[C@H]2O)[C@](C)(OC)C[C@@H](C)/C(=N\OC)[C@H](C)[C@H]2OC(=O)O[C@@]21C
- MBC (Staphylococcus aureus [1]): 8 µg/mL (≈ 7.65 µM)
- MBC (Staphylococcus aureus [2]): > 256 µg/mL
- remaining at 1 h, 1 µM [22]: 42%
- MIC (Streptococcus pneumoniae [3]): 0.5 µg/mL (≈ 0.478 µM)
- Selectivity ratio (Streptococcus pneumoniae [4]): 2
- MBC (Streptococcus pyogenes [5]): > 0.062 µg/mL
- CLint scaled at 1 µM [23]: 21.8 mL/min/kg
- MIC (Streptococcus pneumoniae [6]): 1 µg/mL (≈ 0.956 µM)
- MIC (Streptococcus pneumoniae [7]): 0.062 µg/mL (≈ 0.0593 µM)
- MIC (Staphylococcus aureus [8]): 1 µg/mL (≈ 0.956 µM)
- Selectivity ratio (Haemophilus influenzae [9]): 1
- remaining at 1 h, 1 µM [24]: 98.4%
- MIC (Haemophilus influenzae [10]): 256 µg/mL (≈ 245 µM)
- half-life at 1 µM [25]: 57.3 min
- MIC (Staphylococcus aureus [11]): 128 µg/mL (≈ 122 µM)
- Selectivity ratio (Streptococcus pneumoniae [12]): 2
- Selectivity ratio (Streptococcus pyogenes [13]): >8
- MBC (Streptococcus pneumoniae [14]): 1 µg/mL (≈ 0.956 µM)
- MBC (Streptococcus pneumoniae [15]): 0.125 µg/mL (≈ 0.119 µM)
- Selectivity ratio (Streptococcus pneumoniae [16]): 2
- Selectivity ratio (Staphylococcus aureus [18]): 8
- MBC (Haemophilus influenzae [19]): 256 µg/mL (≈ 245 µM)
- MIC (Streptococcus pyogenes [20]): ≤ 0.008 µg/mL
- MBC (Streptococcus pneumoniae [21]): 2 µg/mL (≈ 1.91 µM)

SMILES: CC[C@H]1OC(=O)[C@H](C)[C@@H](OC(=O)CCNCCCNc2cc3c(=O)c(C(=O)O)cn(C4CC4)c3cc2Cl)[C@H](C)[C@@H](O[C@@H]2O[C@H](C)C[C@H](N(C)C)[C@H]2O)[C@](C)(OC)C[C@@H](C)/C(=N\OC)[C@H](C)[C@H]2OC(=O)O[C@@]21C
- MBC (Staphylococcus aureus [1]): > 256 µg/mL
- MBC (Staphylococcus aureus [2]): 256 µg/mL (≈ 247 µM)
- MIC (Streptococcus pneumoniae [3]): 2 µg/mL (≈ 1.93 µM)
- Selectivity ratio (Streptococcus pneumoniae [4]): 2
- MBC (Streptococcus pyogenes [5]): 16 µg/mL (≈ 15.5 µM)
- MIC (Streptococcus pneumoniae [6]): 8 µg/mL (≈ 7.73 µM)
- MIC (Streptococcus pneumoniae [7]): 0.25 µg/mL (≈ 0.242 µM)
- MIC (Staphylococcus aureus [8]): 32 µg/mL (≈ 30.9 µM)
- Selectivity ratio (Haemophilus influenzae [9]): 1
- MIC (Haemophilus influenzae [10]): 256 µg/mL (≈ 247 µM)
- MIC (Staphylococcus aureus [11]): 128 µg/mL (≈ 124 µM)
- Selectivity ratio (Streptococcus pneumoniae [12]): 1
- Selectivity ratio (Streptococcus pyogenes [13]): 4
- MBC (Streptococcus pneumoniae [14]): 2 µg/mL (≈ 1.93 µM)
- MBC (Streptococcus pneumoniae [15]): 0.5 µg/mL (≈ 0.483 µM)
- Selectivity ratio (Streptococcus pneumoniae [16]): 2
- Selectivity ratio (Staphylococcus aureus [17]): 2
- Selectivity ratio (Staphylococcus aureus [18]): >8
- MBC (Haemophilus influenzae [19]): 256 µg/mL (≈ 247 µM)
- MIC (Streptococcus pyogenes [20]): 4 µg/mL (≈ 3.87 µM)
- MBC (Streptococcus pneumoniae [21]): 16 µg/mL (≈ 15.5 µM)
